Like-named read-outs stand apart in the source and are kept apart here.
Key:
[1] = system: cancer cells on SISgel or plastic; test: Activity of leads and analogs on cancer cells grown on plastic vs SISgel (cell line not stated); assay type: cell-based; conditions: for SR: ratio IC50-p/IC50-S; for Hit: YES/NO
Method: The NCI library is no longer available in the form used here, but how it was constructed is described (http://dtp.nci.nih.gov/branches/dscb/diversity_explanation.html). The ChemBridge library is a subset (Set Code NM1024) of the full 50,000 compound library (http://www.chembridge.com/screening_libraries/diversity_libraries/). Compounds were diluted to 100 μM before use. SISgel was prepared as described previously from powdered porcine small intestine submucosa obtained from Cook Biotech (W. Lafayette, IN). It is a natural product that is used extensively in tissue engineering as a bioscaffold. J82 bladder cancer cells and other cell lines were obtained from the ATCC (Bethesda, MD). […] Efficacy in vitro was assessed by plating 30,000 cells in 50 μL of high glucose DMEM with penicillin-streptomycin and 10 % fetal calf serum on SISgel in a 96-well plate containing 50 μL of gelled SISgel per well. Cells were allowed to attach and assume the SISgel phenotype for 48 h. A matching plate without SISgel was prepared 24 h later by pipetting 3,000 cells in 100 μL of high glucose DMEM with penicillin-streptomycin and 10 % fetal calf serum into each well of 96 well plate. The cells were allowed to attach and grow for 24 h. […] The cells were exposed to drug in fresh medium for 48 h, at which time the cell number was determined using the CFDA-AM cellular esterase proliferation assay (cat. #C1354, Life Technologies). For screening the results are reported as the ratio of cell count of cells on the plastic surface to the cell count on SISgel. An initial difference of 1.5 fold identified potential hits. All potential hits were confirmed in triplicate. […] Data were analyzed using nonlinear regression to a sigmoid curve with Prism 4 (GraphPad Software, Inc., LaJolla, CA). […]

[2] = system: 4T1 stem cells (CD44v3highALDH1high 4T1 cells); test: Tumor cell growth inhibition of sphere-derived cancer stem cells (CellTiter-Glo); assay type: cell-based, mouse; conditions: suspension culture, 5 days; read-out: EC50 4T1 stem cells in suspension culture
Method: Sphere formation to further increase the fraction of cancer stem cells was induced by suspending CD44v3highALDH1high 4T1 cells in 1:1 Matrigel/basal medium in a total of volume of 100 μl. Samples (5 × 10^4 cells) were then plated around the rims of wells in a 12-well plate and allowed to solidify at 37 °C for 10 min before 1 ml basal medium (with B27 plus 20 ng/mL EGF, 10 ng/mL FGF and 4 μg/mL insulin) was added. Medium was replenished every 3-days. Ten days after plating, spheres (tight, spherical, nonadherent masses >40 μm in diameter) per well were counted, and at least 100 spheres per group were measured. The number of spheres containing CD44v3highALDH1high 4T1 cells in each well and expressed as sphere forming units (SFU) as described previously. The number of SFUs per well was counted in triplicate wells for each condition.
To recover CD44v3highALDH1high 4T1 cells from the spheres, Matrigel–containing wells were treated with 1 mg/ml Dispase solution (Gibco). Spheres were then digested with trypsin and 0.05 % EDTA. CD44v3highALDH1high cells dissociated from spheres were counted by hemacytometer and replated to generate spheres of next generation. Serial passage of individual spheres was regularly performed in order to verify self-renewal capability of cells associated the spheres. Measurement of growth for CD44v3highALDH1high cells (dissociated from spheres) was also performed by incubating these cells in serum-free RPMI-1640 medium for 3-weeks using MTT-based growth assay as described previously.
To analyze tumor cell growth properties, sphere-derived CD44v3highALDH1high 4T1 cells were incubated in basal medium (with B27 plus 20 ng/mL EGF, 10 ng/mL FGF and 4 μg/mL insulin). Medium was replenished every 3-days. Twenty-one days after plating, the number of cell growth was then counted under a microscope at low magnification. In some cases, these sphere-derived CD44v3highALDH1high 4T1 cells were also treated with DT compounds for 5 days or doxorubicin (range 1 μM to 1 mM) for 5 days at 37 °C. The CellTiter-Glo® Luminescent Cell Viability Assay (Promega, Madison, WI) was utilized to determine the number of metabolically active cells based on the quantification of adenosine triphosphate (ATP). The percentage of […] relative to untreated controls was plotted as a linear function of drug concentration. The 50 % inhibitory concentration (IC50) was identified as the concentration of drug required to achieve a 50 % growth inhibition relative to untreated controls.
A stem cell–enriched cell population was prepared as described previously by sorting for ALDH1 and CD44v3. The identification of aldehyde dehydrogenase1 (ALDH1) activity from tumor–derived 4T1 Luc2-GFP cells (PerkinElmer, Waltham, MA) was conducted using the ALDEFLUOR kit (StemCell Technologies, Durham, NC). Specifically, tumor cells were suspended in ALDEFLUOR assay buffer containing ALDH1 substrate (BAAA, […] per 1 × 10^6 cells) and incubated for 30 min at 37 °C. As a negative control, 4T1 cells were treated with a specific ALDH1 inhibitor, […] diethylaminobenzaldehyde (DEAB). Next, for labeling cell surface marker, tumor–derived 4T1 cells were suspended in 100 μl ALDEFLUOR buffer followed by incubating with 20 μl allophycocyanin (APC)-labeled anti-CD44v3 antibody (recognizing the v3-specific domain of CD44) or APC-labeled normal mouse IgG (as a control) (BD Bioscience, San Jose, CA) for 15 min at 4 °C. For FACS sorting, tumor cells were incubated in PBS buffer followed by FACS (BD FACS Aria llu, BD Bioscience, San Jose, CA) sorting using dual-wavelength analysis as described previously. The parental cell line contained 2 % CD44v3highALDH1high cells but the final sorted cells contained 18 % CD44v3highALDH1high cells, a 9-fold enrichment.

in vivo = conditions: mouse
mice = test: Toxicity / maximum tolerated dose in mice; conditions: mice
MDA-MB-435 cells = test: Proliferation (CFDA-AM esterase assay) of cells grown on SISgel, plastic or Matrigel, 48 h drug exposure; assay type: cell-based; conditions: for EC50: Homo sapiens; for SI (EC50-P/EC50-S): ratio of EC50 on plastic versus SISgel
From the text: The libraries were obtained from the NCI (Diversity Library I) comprised of 2,918 compounds and a 10,000 compound diversity library from ChemBridge, Inc. (DiverSet-EXP). The NCI library is no longer available in the form used here, but how it was constructed is described (http://dtp.nci.nih.gov/branches/dscb/diversity_explanation.html). The ChemBridge library is a subset (Set Code NM1024) of the full 50,000 compound library (http://www.chembridge.com/screening_libraries/diversity_libraries/). Compounds were diluted to 100 μM before use. SISgel was prepared as described previously from powdered porcine small intestine submucosa obtained from Cook Biotech (W. Lafayette, IN). It is a natural product that is used extensively in tissue engineering as a bioscaffold. J82 bladder cancer cells and other cell lines were obtained from the ATCC (Bethesda, MD). The basic principle is that cells grown on any ECM are, in general, expected to show higher resistance to anticancer compounds than when grown on plastic. Therefore, compounds that show a higher activity toward cancer cells on a normal ECM than on a plastic surface would be candidates to target suppressed, micrometastatic cells. Efficacy in vitro was assessed by plating 30,000 cells in 50 μL of high glucose DMEM with penicillin-streptomycin and 10 % fetal calf serum on SISgel in a 96-well plate containing 50 μL of gelled SISgel per well. Cells were allowed to attach and assume the SISgel phenotype for 48 h. A matching plate without SISgel was prepared 24 h later by pipetting 3,000 cells in 100 μL of high glucose DMEM with penicillin-streptomycin and 10 % fetal calf serum into each well of 96 well plate. The cells were allowed to attach and grow for 24 h. These numbers of cells gave approximately equal replication rates at the time drug was added for cells grown on the plastic surface or SISgel as determined by the fraction of S-phase cells identified by flow cytometry. The cells were exposed to drug in fresh medium for 48 h, at which time the cell number was determined using the CFDA-AM cellular esterase proliferation assay (cat. #C1354, Life Technologies). For screening the results are reported as the ratio of cell count of cells on the plastic surface to the cell count on SISgel. An initial difference of 1.5 fold identified potential hits. All potential hits were confirmed in triplicate. Those compounds that replicated were confirmed by a full dose–response study yielding an EC50 using five wells per drug concentration. Data were analyzed using nonlinear regression to a sigmoid curve with Prism 4 (GraphPad Software, Inc., LaJolla, CA). Potential hits that were confirmed by dose–response using J82 were also tested with MDA-MB-435 breast cancer, PC-3 metastatic prostate cancer, Capan1 pancreatic cancer and the J82 bladder cancer cell lines.

[3] = cells on SISgel, read-out: IC50-S
[4] = cells on plastic, read-out: IC50-p
[5] = MDA-MB-435 cells on SISgel, read-out: EC50-S
[6] = MDA-MB-435 cells on plastic, read-out: EC50-P

| IC50 [1, 3] | IC50 [1, 4] | Structure (SMILES) | SR [1] | Hit [1] | also measured |
| --- | --- | --- | --- | --- | --- |
| 1200 µM | 657 µM | O=S(=O)([O-])c1ccc(N=Nc2ccc(O)c3ccccc23)cc1.[Na+] [Orange 1] | 0.55 |  | EC50 [2]: 398 µM |
| 125 µM | 201 µM | CCOc1ccc(Nc2ccc(C(=C3C=CC(=[N+](CC)Cc4cccc(S(=O)(=O)[O-])c4)C=C3C)c3ccc(N(CC)Cc4cccc(S(=O)(=O)[O-])c4)cc3C)cc2)cc1.[Na+] [Comassie Brilliant Blue] | 1.6 |  |  |
| 50 µM | 90 µM | O=S(=O)(O)c1ccc(N=Nc2ccc3c(S(=O)(=O)O)cccc3c2O)c2ccccc12.[Na+] [Chromotrope F4B] | 1.8 | YES |  |
| 27 µM | 43 µM | O=S(=O)([O-])c1cc(S(=O)(=O)[O-])c2c(N=Nc3ccc(S(=O)(=O)[O-])c4ccccc34)c(O)ccc2c1.[Na+].[Na+].[Na+] [New Coccine] | 1.6 | YES |  |
|  |  | COc1ccc(CC(=O)Oc2ccc3c(c2)C(C)=CC(C)(C)N3)cc1 [DT350, 2,2,4-trimethyl-1,2-dihydro-6-quinolinyl (4-methoxyphenyl)-acetate] |  |  | MTD (in vivo): < 10 mg/kg; doses at which highly toxic to mice (mice): less than 10 mg/kg; toxicity in mice (mice): dose-limiting toxicity; EC50 (MDA-MB-435 cells; [5]): 270 µM; EC50 (MDA-MB-435 cells; [6]): 1830 µM; SI (EC50-P/EC50-S) (MDA-MB-435 cells): 6.8 |
| 34 µM | 57 µM | O=S(=O)([O-])c1ccccc1N=Nc1c(S(=O)(=O)[O-])cc2cc(S(=O)(=O)[O-])c(N=Nc3ccccc3S(=O)(=O)[O-])c(O)c2c1O.[Na+].[Na+].[Na+].[Na+] [Sulfanazo II] | 2 | YES |  |
| 604 µM | 154 µM | Cc1ccc(N=Nc2c(O)c(S(=O)(=O)[O-])cc3cc(S(=O)(=O)[O-])ccc23)c(C)c1.[Na+].[Na+] [Acid Red 26] | 0.26 |  |  |
| 21 µM | 23 µM | O=S(=O)(O)c1ccc2c(O)c(N=Nc3cccc4ccccc34)c(S(=O)(=O)O)cc2c1.[Na+] [Acid Dye (Azo Red)] | 1 |  |  |
| 293 µM | 419 µM | Cc1nc(N=Nc2ccc(S(=O)(=O)O)cc2S(=O)(=O)O)c(COP(=O)(O)O)c(C=O)c1O [PPADS] | 1.4 |  |  |
| 176 µM | 323 µM | O=S(=O)([O-])c1cc(Cl)cc(N=Nc2ccc3c(S(=O)(=O)[O-])cccc3c2O)c1O.[Na+].[Na+] [Mordant Blue 9] | 1.8 |  |  |
| 13 µM | 33 µM | CC(=O)Nc1cc(S(=O)(=O)[O-])cc2cc(S(=O)(=O)[O-])c(N=Nc3ccccc3)c(O)c12.[Na+].[Na+] [Acid Red 1] | 2.6 | YES |  |
| 400 µM | 114 µM | O=S(=O)([O-])c1ccc(N=Nc2c(O)ccc3ccccc23)cc1.[Na+] [Acid Orange 7] | 0.29 |  |  |
| 70 µM | 74 µM | Nc1cc(S(=O)(=O)[O-])cc2cc(S(=O)(=O)[O-])c(N=Nc3cc([N+](=O)[O-])ccc3O)c(O)c12.[Na+].[Na+] [Palatine Chrome Green] | 1.1 |  |  |
|  |  | COc1ccc(C2C3=C(CCCC3=O)NC3=C2C(=O)c2ccccc23)c(OC)c1OC (stereo not shown) [DT340, 10-(2,3,4-trimethoxyphenyl)-6,7,8,10-tetrahydro-5H-indeno[1,2-b]quinoline-9,11-dione] |  |  | MTD (in vivo): < 10 mg/kg; doses at which highly toxic to mice (mice): less than 10 mg/kg; toxicity in mice (mice): dose-limiting toxicity; EC50 (MDA-MB-435 cells; [5]): 117 µM; EC50 (MDA-MB-435 cells; [6]): 219 µM; SI (EC50-P/EC50-S) (MDA-MB-435 cells): 1.9 |
| 45 µM | 106 µM | Cc1ccc(NC(=O)c2cc3ccccc3c(N=Nc3cc(S(=O)(=O)[O-])ccc3O)c2O)c(C)c1.[Na+] [Xylidyl Blue 1] | 2.4 | YES |  |
| 72 µM | 146 µM | O=S(=O)([O-])c1cc2cc(S(=O)(=O)O)ccc2c(N=Nc2c(O)cc(S(=O)(=O)[O-])c3ccccc23)c1O.[Na+].[Na+] [Hydroxy Naphthol Blue] | 2.0 | YES |  |
|  |  | Cn1c(=O)c2[nH]c(-c3ccc(S(=O)(=O)O)cc3)nc2n(C)c1=O.O [8-(p-Sulfophenyl)theophylline hydrate] | 2.5 |  | IC50 ([1]; read-out: IC50-S): 140 µM; IC50 ([1]; read-out: IC50-p): 346 µM |

Reference: paper PMC4434572, “Identification of novel drugs to target dormant micrometastases” (BMC Cancer, 2015)
